Reference: patent US20230085307A1, “PYRIDAZINONE COMPOUND AND HERBICIDE” (NISSAN CHEMICAL CORPORATION, priority 2019, published 2023)

Tests used:
wild oat [1] = assay: Test Example 4: herbicidal effect by soil treatment (Table 19, symbol I); assay type: in vivo, wild oat (Avena fatua)
Procedure, shortened: (§1)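 Seeds were sown in sterilized diluvial soil and covered with about 1.5 cm of soil. An emulsion formulation diluted with water to a predetermined herbicide amount was sprayed evenly onto the soil surface. Plants grew in a greenhouse at 25° C. to 30° C., and the effect was scored three weeks after application using criteria from an earlier test.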

southern crabgrass [2] = assay: Test Example 4: herbicidal effect by soil treatment (Table 19, symbol F); assay type: in vivo, southern crabgrass (Digitaria ciliaris)
Procedure, shortened: as §1

redroot pigweed [3] = assay: Test Example 4: herbicidal effect by soil treatment (Table 19, symbol N); assay type: in vivo, redroot pigweed (Amaranthus retroflexus)
Procedure, shortened: as §1

lambsquarters [4] = assay: Test Example 4: herbicidal effect by soil treatment (Table 19, symbol O); assay type: in vivo, lambsquarters (Chenopodium album)
Procedure, shortened: as §1

Chinese sprangletop = assay: Test Example 3: herbicidal effect by foliage application, Wagner pot (Table 18, symbol D); assay type: in vivo, chinese sprangletop (Leptochloa chinensis); conditions: 320 g/ha
Procedure, shortened: (§2)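 Plants were sown in alluvial soil held under 0.1–0.5 cm standing water and grown 14 days in a greenhouse at 25–30 °C. An emulsifiable formulation, water-diluted to the set dose, was then sprayed onto the foliage, and effects were scored three weeks later using previously defined criteria.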

Japanese bulrush = assay: Test Example 2: herbicidal activity, application during weed generation under submerged conditions (Table 17, symbol B); assay type: in vivo, Japanese bulrush (Schoenoplectus juncoides); conditions: AAH 320 g/ha; application during weed generation, submerged conditions
Procedure, shortened: (§3)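 Effect on each weed is rated three weeks post-treatment, using the same scoring criteria as the preceding test. Plants grow from mixed-sown seed in flooded alluvial soil (4 cm water) at 25° C. to 30° C., and are treated at one to two leaves with diluted emulsion dropped onto the water.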

southern crabgrass [5] = assay: Test Example 5: herbicidal effect by foliage application, plastic box (Table 20, symbol F); assay type: in vivo, southern crabgrass (Digitaria ciliaris)
Procedure, shortened: (§4)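 Plants sown in sterilized diluvial soil and grown 14 days in a greenhouse at 25° C to 30° C, then sprayed on the foliage with the compound's emulsion diluted in water to a predetermined herbicide amount. Injury to weeds and crops scored three weeks after application on a visual rating scale.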

blackgrass [6] = assay: Test Example 4: herbicidal effect by soil treatment (Table 19, symbol J); assay type: in vivo, blackgrass (Alopecurus myosuroides)
Procedure, shortened: as §1

oval-leafed pondweed = assay: Test Example 2: herbicidal activity, application during weed generation under submerged conditions (Table 17, symbol C); assay type: in vivo, oval-leafed pondweed (Monochoria vaginalis); conditions: AAH 320 g/ha; application during weed generation, submerged conditions
Procedure, shortened: as §3

blackgrass [7] = assay: Test Example 5: herbicidal effect by foliage application, plastic box (Table 20, symbol J); assay type: in vivo, blackgrass (Alopecurus myosuroides)
Procedure, shortened: as §4

chickweed [8] = assay: Test Example 5: herbicidal effect by foliage application, plastic box (Table 20, symbol P); assay type: in vivo, common chickweed (Stellaria media)
Procedure, shortened: as §4

green foxtail [9] = assay: Test Example 5: herbicidal effect by foliage application, plastic box (Table 20, symbol G); assay type: in vivo, green foxtail (Setaria viridis)
Procedure, shortened: as §4

windgrass [10] = assay: Test Example 5: herbicidal effect by foliage application, plastic box (Table 20, symbol L); assay type: in vivo, windgrass (Apera spica-venti)
Procedure, shortened: as §4

velvetleaf [11] = assay: Test Example 4: herbicidal effect by soil treatment (Table 19, symbol M); assay type: in vivo, velvetleaf (Abutilon theophrasti)
Procedure, shortened: as §1

late watergrass = assay: Test Example 2: herbicidal activity, application during weed generation under submerged conditions (Table 17, symbol A); assay type: in vivo, late watergrass (Echinochloa oryzicola); conditions: AAH 320 g/ha; application during weed generation, submerged conditions
Procedure, shortened: as §3

windgrass [12] = assay: Test Example 4: herbicidal effect by soil treatment (Table 19, symbol L); assay type: in vivo, windgrass (Apera spica-venti)
Procedure, shortened: as §1

Italian ryegrass [13] = assay: Test Example 5: herbicidal effect by foliage application, plastic box (Table 20, symbol K); assay type: in vivo, Italian ryegrass (Lolium multiflorum)
Procedure, shortened: as §4

redroot pigweed [14] = assay: Test Example 5: herbicidal effect by foliage application, plastic box (Table 20, symbol N); assay type: in vivo, redroot pigweed (Amaranthus retroflexus)
Procedure, shortened: as §4

chickweed [15] = assay: Test Example 4: herbicidal effect by soil treatment (Table 19, symbol P); assay type: in vivo, common chickweed (Stellaria media)
Procedure, shortened: as §1

barnyard grass [16] = assay: Test Example 5: herbicidal effect by foliage application, plastic box (Table 20, symbol H); assay type: in vivo, barnyard grass (Echinochloa crus-galli)
Procedure, shortened: as §4

velvetleaf [17] = assay: Test Example 5: herbicidal effect by foliage application, plastic box (Table 20, symbol M); assay type: in vivo, velvetleaf (Abutilon theophrasti)
Procedure, shortened: as §4

rice flat sedge = assay: Test Example 3: herbicidal effect by foliage application, Wagner pot (Table 18, symbol E); assay type: in vivo, rice flat sedge (Cyperus iria); conditions: 320 g/ha
Procedure, shortened: as §2

persian speedwell [18] = assay: Test Example 5: herbicidal effect by foliage application, plastic box (Table 20, symbol R); assay type: in vivo, Persian speedwell (Veronica persica)
Procedure, shortened: as §4

barnyard grass [19] = assay: Test Example 4: herbicidal effect by soil treatment (Table 19, symbol H); assay type: in vivo, barnyard grass (Echinochloa crus-galli)
Procedure, shortened: as §1

barnyard grass [20] = assay: Test Example 3: herbicidal effect by foliage application, Wagner pot (Table 18, symbol H); assay type: in vivo, barnyard grass (Echinochloa crus-galli); conditions: 320 g/ha
Procedure, shortened: as §2

Italian ryegrass [21] = assay: Test Example 4: herbicidal effect by soil treatment (Table 19, symbol K); assay type: in vivo, Italian ryegrass (Lolium multiflorum)
Procedure, shortened: as §1

green foxtail [22] = assay: Test Example 4: herbicidal effect by soil treatment (Table 19, symbol G); assay type: in vivo, green foxtail (Setaria viridis)
Procedure, shortened: as §1

wild oat [23] = assay: Test Example 5: herbicidal effect by foliage application, plastic box (Table 20, symbol I); assay type: in vivo, wild oat (Avena fatua)
Procedure, shortened: as §4

lambsquarters [24] = assay: Test Example 5: herbicidal effect by foliage application, plastic box (Table 20, symbol O); assay type: in vivo, lambsquarters (Chenopodium album)
Procedure, shortened: as §4

persian speedwell [25] = assay: Test Example 4: herbicidal effect by soil treatment (Table 19, symbol R); assay type: in vivo, Persian speedwell (Veronica persica)
Procedure, shortened: as §1

[26] = amount of applied herbicide 320 g/ha
[27] = 320 g/ha, foliage application after 14-day growth, evaluated three weeks after application
[28] = foliage application, AAH 320 g/ha, three weeks after application

## CCCC(=O)Oc1c(C)nn(C)c(=O)c1-c1c(-c2ccc(F)cc2)sc2c(Cl)cccc12 [4-016]
Wild oat [1]; [26]
  Herbicidal effect by soil treatment, I: wild oat: 0 (Herbicidal rate of 5% or less (almost no effect))
Southern crabgrass [2]; [26]
  Herbicidal effect by soil treatment, F: southern crabgrass: 2 (Herbicidal rate of 20% or more and less than 40%)
Redroot pigweed [3]; [26]
  Herbicidal effect by soil treatment, N: redroot pigweed: 3 (Herbicidal rate of 40% or more and less than 70%)
Lambsquarters [4]; [26]
  Herbicidal effect by soil treatment, O: lambsquarters: 1 (Herbicidal rate of 5% or more and less than 20%)
Chinese sprangletop
  herbicidal effect on Chinese sprangletop (D): 5 (Herbicidal rate of 90% or more (almost completely withered))
Japanese bulrush
  herbicidal effect rating, B: Japanese bulrush: 0 (Herbicidal rate of 5% or less (almost no effect))
Southern crabgrass [5]; [27]
  herbicidal effect on F: southern crabgrass (evaluation grade 0-5): 0 (Herbicidal rate of 5% or less (almost no effect))
Blackgrass [6]; [26]
  Herbicidal effect by soil treatment, J: blackgrass: 0 (Herbicidal rate of 5% or less (almost no effect))
oval-leafed pondweed
  herbicidal effect rating, C: oval-leafed pondweed: 0 (Herbicidal rate of 5% or less (almost no effect))
Blackgrass [7]; [27]
  herbicidal effect on J: blackgrass (evaluation grade 0-5): 0 (Herbicidal rate of 5% or less (almost no effect))
Chickweed [8]; [27]
  herbicidal effect on P: chickweed (evaluation grade 0-5): 5 (Herbicidal rate of 90% or more (almost completely withered))
Green foxtail [9]; [27]
  herbicidal effect on G: green foxtail (evaluation grade 0-5): 0 (Herbicidal rate of 5% or less (almost no effect))
Windgrass [10]; [27]
  herbicidal effect on L: windgrass (evaluation grade 0-5): 5 (Herbicidal rate of 90% or more (almost completely withered))
Velvetleaf [11]; [26]
  Herbicidal effect by soil treatment, M: velvetleaf: 0 (Herbicidal rate of 5% or less (almost no effect))
Late watergrass
  herbicidal effect rating, A: late watergrass: 2 (Herbicidal rate of 20% or more and less than 40%)
Windgrass [12]; [26]
  Herbicidal effect by soil treatment, L: windgrass: 0 (Herbicidal rate of 5% or less (almost no effect))
Italian ryegrass [13]; [27]
  herbicidal effect on K: Italian ryegrass (evaluation grade 0-5): 0 (Herbicidal rate of 5% or less (almost no effect))
Redroot pigweed [14]; [27]
  herbicidal effect on N: redroot pigweed (evaluation grade 0-5): 3 (Herbicidal rate of 40% or more and less than 70%)
Chickweed [15]; [26]
  Herbicidal effect by soil treatment, P: chickweed: 1 (Herbicidal rate of 5% or more and less than 20%)
Barnyard grass [16]; [27]
  herbicidal effect on H: barnyard grass (evaluation grade 0-5): 0 (Herbicidal rate of 5% or less (almost no effect))
Velvetleaf [17]; [27]
  herbicidal effect on M: velvetleaf (evaluation grade 0-5): 5 (Herbicidal rate of 90% or more (almost completely withered))
Rice flat sedge
  herbicidal effect on rice flat sedge (E): 4 (Herbicidal rate of 70% or more and less than 90%)
Persian speedwell [18]; [27]
  herbicidal effect on R: persian speedwell (evaluation grade 0-5): 3 (Herbicidal rate of 40% or more and less than 70%)
Barnyard grass [19]; [26]
  Herbicidal effect by soil treatment, H: barnyard grass: 1 (Herbicidal rate of 5% or more and less than 20%)
Barnyard grass [20]
  herbicidal effect on barnyard grass (H): 3 (Herbicidal rate of 40% or more and less than 70%)
Italian ryegrass [21]; [26]
  Herbicidal effect by soil treatment, K: Italian ryegrass: 0 (Herbicidal rate of 5% or less (almost no effect))
Green foxtail [22]; [26]
  Herbicidal effect by soil treatment, G: green foxtail: 3 (Herbicidal rate of 40% or more and less than 70%)
Wild oat [23]; [27]
  herbicidal effect on I: wild oat (evaluation grade 0-5): 3 (Herbicidal rate of 40% or more and less than 70%)
Lambsquarters [24]; [27]
  herbicidal effect on O: lambsquarters (evaluation grade 0-5): 1 (Herbicidal rate of 5% or more and less than 20%)
Persian speedwell [25]; [26]
  Herbicidal effect by soil treatment, R: persian speedwell: 0 (Herbicidal rate of 5% or less (almost no effect))

## Cc1nn(C)c(=O)c(-c2c(-c3ccccc3OCC(F)(F)F)sc3ccccc23)c1O [1-118]
Wild oat [1]; AAH 320 g/ha
  I: wild oat, herbicidal effect rating: 3 (Herbicidal rate of 40% or more and less than 70%)
Southern crabgrass [2]; AAH 320 g/ha
  F: southern crabgrass, herbicidal effect rating: 1 (Herbicidal rate of 5% or more and less than 20%)
Redroot pigweed [3]; AAH 320 g/ha
  N: redroot pigweed, herbicidal effect rating: 5 (Herbicidal rate of 90% or more (almost completely withered))
Lambsquarters [4]; AAH 320 g/ha
  O: lambsquarters, herbicidal effect rating: 5 (Herbicidal rate of 90% or more (almost completely withered))
Chinese sprangletop
  herbicidal effect on D (Chinese sprangletop), rating 0-5: 2 (Herbicidal rate of 20% or more and less than 40%)
Japanese bulrush
  herbicidal effect rating, B: Japanese bulrush: 0 (Herbicidal rate of 5% or less (almost no effect))
Southern crabgrass [5]; [28]
  F: southern crabgrass, herbicidal effect: 5 (Herbicidal rate of 90% or more (almost completely withered))
Blackgrass [6]; AAH 320 g/ha
  J: blackgrass, herbicidal effect rating: 3 (Herbicidal rate of 40% or more and less than 70%)
oval-leafed pondweed
  herbicidal effect rating, C: oval-leafed pondweed: 0 (Herbicidal rate of 5% or less (almost no effect))
Blackgrass [7]; [28]
  J: blackgrass, herbicidal effect: 4 (Herbicidal rate of 70% or more and less than 90%)
Chickweed [8]; [28]
  P: chickweed, herbicidal effect: 5 (Herbicidal rate of 90% or more (almost completely withered))
Green foxtail [9]; [28]
  G: green foxtail, herbicidal effect: 5 (Herbicidal rate of 90% or more (almost completely withered))
Windgrass [10]; [28]
  L: windgrass, herbicidal effect: 5 (Herbicidal rate of 90% or more (almost completely withered))
Velvetleaf [11]; AAH 320 g/ha
  M: velvetleaf, herbicidal effect rating: 3 (Herbicidal rate of 40% or more and less than 70%)
Late watergrass
  herbicidal effect rating, A: late watergrass: 3 (Herbicidal rate of 40% or more and less than 70%)
Windgrass [12]; AAH 320 g/ha
  L: windgrass, herbicidal effect rating: 3 (Herbicidal rate of 40% or more and less than 70%)
Italian ryegrass [13]; [28]
  K: Italian ryegrass, herbicidal effect: 4 (Herbicidal rate of 70% or more and less than 90%)
Redroot pigweed [14]; [28]
  N: redroot pigweed, herbicidal effect: 5 (Herbicidal rate of 90% or more (almost completely withered))
Chickweed [15]; AAH 320 g/ha
  P: chickweed, herbicidal effect rating: 3 (Herbicidal rate of 40% or more and less than 70%)
Barnyard grass [16]; [28]
  H: barnyard grass, herbicidal effect: 2 (Herbicidal rate of 20% or more and less than 40%)
Velvetleaf [17]; [28]
  M: velvetleaf, herbicidal effect: 5 (Herbicidal rate of 90% or more (almost completely withered))
Rice flat sedge
  herbicidal effect on E (rice flat sedge), rating 0-5: 2 (Herbicidal rate of 20% or more and less than 40%)
Persian speedwell [18]; [28]
  R: persian speedwell, herbicidal effect: 5 (Herbicidal rate of 90% or more (almost completely withered))
Barnyard grass [19]; AAH 320 g/ha
  H: barnyard grass, herbicidal effect rating: 4 (Herbicidal rate of 70% or more and less than 90%)
Barnyard grass [20]
  herbicidal effect on H (barnyard grass), rating 0-5: 4 (Herbicidal rate of 70% or more and less than 90%)
Italian ryegrass [21]; AAH 320 g/ha
  K: Italian ryegrass, herbicidal effect rating: 0 (Herbicidal rate of 5% or less (almost no effect))
Green foxtail [22]; AAH 320 g/ha
  G: green foxtail, herbicidal effect rating: 3 (Herbicidal rate of 40% or more and less than 70%)
Wild oat [23]; [28]
  I: wild oat, herbicidal effect: 4 (Herbicidal rate of 70% or more and less than 90%)
Lambsquarters [24]; [28]
  O: lambsquarters, herbicidal effect: 3 (Herbicidal rate of 40% or more and less than 70%)
Persian speedwell [25]; AAH 320 g/ha
  R: persian speedwell, herbicidal effect rating: 4 (Herbicidal rate of 70% or more and less than 90%)
